From PubChem BioAssay (NCI)
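Compound exposure: 48 hours, 5 concentrations, 96-well plates. GI50 is the concentration that inhibits growth by half. TGI: concentration producing complete growth inhibition.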

Tests used:
Test in all cases: NCI-60 cell line screen, 48 h
[1] = test system: 786-0 renal
[2] = test system: A549 NSCLC
[3] = test system: ACHN renal
[4] = test system: BT-549 breast
[5] = test system: CAKI-1 renal
[6] = test system: CCRF-CEM leukemia
[7] = test system: COLO 205 colon
[8] = test system: DU-145 prostate
[9] = test system: EKVX NSCLC
[10] = test system: HCC-2998 colon
[11] = test system: HCT-116 colon
[12] = test system: HCT-15 colon
[13] = test system: HL-60(TB) leukemia
[14] = test system: HOP-62 NSCLC
[15] = test system: HOP-92 NSCLC
[16] = test system: HS 578T breast
[17] = test system: HT29 colon
[18] = test system: IGROV1 ovarian
[19] = test system: K-562 leukemia
[20] = test system: KM12 colon
[21] = test system: M14 melanoma
[22] = test system: MALME-3M melanoma
[23] = test system: MCF7 breast
[24] = test system: MDA-MB-231 breast
[25] = test system: MDA-MB-435
[26] = test system: MOLT-4 leukemia
[27] = test system: NCI-H226 lung
[28] = test system: NCI-H23 lung
[29] = test system: NCI-H460 lung
[30] = test system: NCI-H522 lung
[31] = test system: NCI/ADR-RES ovarian
[32] = test system: OVCAR-3 ovarian
[33] = test system: OVCAR-4 ovarian
[34] = test system: OVCAR-5 ovarian
[35] = test system: OVCAR-8 ovarian
[36] = test system: PC-3 prostate
[37] = test system: RPMI-8226 leukemia
[38] = test system: RXF 393 renal
[39] = test system: SF-268 CNS
[40] = test system: SF-295 CNS
[41] = test system: SF-539 CNS
[42] = test system: SK-MEL-2 melanoma
[43] = test system: SK-MEL-28 melanoma
[44] = test system: SK-MEL-5 melanoma
[45] = test system: SK-OV-3 ovarian
[46] = test system: SN12C renal
[47] = test system: SNB-19 CNS
[48] = test system: SNB-75 CNS
[49] = test system: SR leukemia
[50] = test system: SW-620 colon
[51] = test system: T-47D breast
[52] = test system: TK-10 renal
[53] = test system: UACC-257 melanoma
[54] = test system: UACC-62 melanoma
[55] = test system: UO-31 renal

CC1=C(Nc2ccc(N3CCN(C)CC3)cc2)C(=O)c2cncnc2C1=O
GI50 [1]: 20.4 µM | TGI [1]: 52.5 µM | GI50 [2]: 3.96 µM | TGI [2]: 17.6 µM | GI50 [3]: 2.31 µM | TGI [3]: 5.88 µM | GI50 [4]: 17.1 µM | TGI [4]: 32.5 µM | GI50 [5]: 3.27 µM | TGI [5]: 14.2 µM | GI50 [6]: 2.6 µM | TGI [6]: > 100 µM | GI50 [7]: 15.8 µM | TGI [7]: 33.1 µM | GI50 [8]: 4.34 µM | TGI [8]: 16.9 µM | GI50 [9]: 5.63 µM | TGI [9]: 19.1 µM | GI50 [10]: 17.4 µM | TGI [10]: 36 µM | GI50 [11]: 2.48 µM | TGI [11]: 6.13 µM | GI50 [12]: 12.9 µM | TGI [12]: 41 µM | GI50 [13]: 2.5 µM | TGI [13]: 6.11 µM | GI50 [14]: 19.2 µM | TGI [14]: 60.4 µM | GI50 [15]: 2.12 µM | TGI [15]: 4.37 µM | GI50 [16]: 19.5 µM | TGI [16]: 55.1 µM | GI50 [17]: 10.2 µM | TGI [17]: 61.8 µM | GI50 [18]: 2.24 µM | TGI [18]: 5.17 µM | GI50 [19]: 2.78 µM | TGI [19]: > 100 µM | GI50 [20]: 10.1 µM | TGI [20]: 30.4 µM | GI50 [21]: 14.9 µM | TGI [21]: 32.2 µM | GI50 [22]: 8.96 µM | TGI [22]: 21.7 µM | GI50 [23]: 1.92 µM | TGI [23]: 4.19 µM | GI50 [24]: 2.67 µM | TGI [24]: 7.78 µM | GI50 [25]: 1.87 µM | TGI [25]: 3.4 µM | GI50 [26]: 2.01 µM | TGI [26]: 6.39 µM | GI50 [27]: 15.2 µM | TGI [27]: 35.7 µM | GI50 [28]: 6.26 µM | TGI [28]: 32.7 µM | GI50 [29]: 3.31 µM | TGI [29]: 11.4 µM | GI50 [30]: 16.1 µM | TGI [30]: 39.3 µM | GI50 [31]: 3.09 µM | TGI [31]: 20.3 µM | GI50 [32]: 1.97 µM | TGI [32]: 4.28 µM | GI50 [33]: 1.09 µM | TGI [33]: 2.28 µM | GI50 [34]: 3.66 µM | TGI [34]: 16.9 µM | GI50 [35]: 2.28 µM | TGI [35]: 6.28 µM | GI50 [36]: 3.05 µM | TGI [36]: 11.9 µM | GI50 [37]: 3.26 µM | TGI [37]: 11.7 µM | GI50 [38]: 5.71 µM | TGI [38]: 19.4 µM | GI50 [39]: 16 µM | TGI [39]: 50.4 µM | GI50 [40]: 11.9 µM | TGI [40]: 28.1 µM | GI50 [41]: 13.5 µM | TGI [41]: 26.9 µM | GI50 [42]: 16 µM | TGI [42]: 42 µM | GI50 [43]: 17.1 µM | TGI [43]: 43.3 µM | GI50 [44]: 14.4 µM | TGI [44]: 27.6 µM | GI50 [45]: 16.7 µM | TGI [45]: 35.3 µM | GI50 [46]: 2.02 µM | TGI [46]: 4.48 µM | GI50 [47]: 17.2 µM | TGI [47]: 37.2 µM | GI50 [48]: 14.7 µM | TGI [48]: 30 µM | GI50 [49]: 3.22 µM | TGI [49]: > 100 µM | GI50 [50]: 2.54 µM | TGI [50]: 8.04 µM | GI50 [51]: 1.78 µM | TGI [51]: 4.26 µM | GI50 [52]: 28.5 µM | TGI [52]: 58.1 µM | GI50 [53]: 2.34 µM | TGI [53]: 6.42 µM | GI50 [54]: 2.38 µM | TGI [54]: 5.64 µM | GI50 [55]: 13.9 µM | TGI [55]: 33.5 µM
